Like-named read-outs stand apart in the source and are kept apart here.
Legend:
[1] = test system: retinoblastoma cell lines; conditions: cited from earlier work
pancreatic cancel cells = conditions: pancreatic cancer cells; cited from earlier work
[2] = test system: urokinase plasminogen activator and its receptor mRNA; conditions: colon cancer cell lines; cited from earlier work
[3] = test system: colorectal carcinoma cell lines; conditions: cited from earlier work
[4] = in vivo; cited from earlier work
fetal hemoglobin = conditions: sickle cell anemia patients; cited from earlier work
[5] = rhesus monkey, in vivo
[6] = test system: Fetal hemoglobin cells (F cells); assay: Efficacy study in anemic rhesus monkeys: % F cells; type: in vivo, rhesus monkey (anemic)
Description: Each group was studied in two phases, as shown below.
Phase I of the efficacy study.
I 2 Hydroxyurea 50 mg/kg/day
Phase II of the efficacy study.

γ globin chain = assay: Efficacy study in anemic rhesus monkeys: % γ globin chain (HPLC); type: in vivo, rhesus monkey (anemic)
Description: (§1) Fetal hemoglobin cells (F cells), Hemoglobin F level in total Hemoglobin (% Hb F) and % γ globin chain levels were monitored before and after each of the two phases. % F cells were measured according to the protocol described in Betke et al, Blut., 4, pp. 241-9 (1958). % Hb F and % γ globin chain synthesis were measured using High Performance Liquid Chromatography (HPLC) according to the protocol described in Huisman, J. Chromagtogr., 418, pp. 277 (1987)

Hemoglobin F = assay: Efficacy study in anemic rhesus monkeys: % Hb F (HPLC); type: in vivo, rhesus monkey (anemic)
Description: as §1

[7] = test system: Cultured Erythroleukemic Cells; conditions: in vitro; cited from earlier work
leukemia = conditions: cited from earlier work
tumor, leukemia = conditions: mice; cited from earlier work
[8] = Triglycerides and ALT in the efficacy study; conditions: three groups, prior to or during the two phases

**Q.** Which apoptosis [1] does the source give for CCCC(=O)[O-].[Na+] [Sodium butyrate] here?
**A.** induce apoptosis

**Q.** What about the antigen expression (pancreatic cancel cells) of the same compound?
**A.** modify antigen expression

**Q.** And the “urokinase plasminogen activator and its receptor mRNA expression” value [2]?
**A.** inhibit

**Q.** And the apoptosis [3]?
**A.** induce apoptosis

**Q.** With NC(=O)NO [Hydroxyurea, hydroxyurea] as the compound, how does the toxicity [4] read?
**A.** potentially limited by myelotoxicity and the risk of carcinogenesis

**Q.** What about the fetal hemoglobin production (fetal hemoglobin) of the same compound?
**A.** stimulates fetal hemoglobin production

**Q.** And the sickling crisis (fetal hemoglobin)?
**A.** reduces sickling crisis

**Q.** What about the “levels of ALT” value [5] of the same compound?
**A.** no detectable difference

**Q.** What about the “levels of the triglycerides” value [5] of the same compound?
**A.** no detectable difference

**Q.** What about the “% F cell count” value ([6]; animal 1, group I, end of Phase I (hydroxyurea 50 mg/kg/day, 5 weeks), before Phase I 8-10) of the same compound?
**A.** 25%

**Q.** What about the “change in % γ-globin chain levels” value (γ globin chain; Group I) of the same compound?
**A.** measurable increase

**Q.** And the “change in % Hb F” value (Hemoglobin F; Group I)?
**A.** measurable increase

**Q.** With CCCC(=O)O [butyric acid] as the compound, how does the cell differentiation [7] read?
**A.** induces cell differentiation

**Q.** What about the “effect in leukemia patients, by inducing cell differentiation” value (leukemia) of the same compound?
**A.** promising effects

**Q.** Which “anti-tumor and anti-leukemia effects” value (tumor, leukemia) does the source give for CCCC(=O)O [arginine butyrate] here?
**A.** exert anti-tumor and anti-leukemia effects in mice

**Q.** Which “levels of ALT” value [8] does the source give for CCCC(=O)O[C@@H](C)C(=O)OCC [Compound IIIc] here?
**A.** no detectable difference

**Q.** What about the “levels of the triglycerides” value [8] of the same compound?
**A.** no detectable difference

**Q.** And the “change in % F cells” value ([6]; Groups II and III)?
**A.** small but significant increase

**Q.** What about the “change in γ-globin chain levels” value (γ globin chain; Groups II and III) of the same compound?
**A.** no measurable change

**Q.** What about the “change in HbF” value (Hemoglobin F; Groups II and III) of the same compound?
**A.** no measurable change
